According to patent US8280710B2, “Method for determining thermal stability of collagen or collagen-like peptide” (University of Medicine and Dentistry of New Jersey, priority 2005, dated 2012):
Non-standard residues stand in square brackets, D forms with d. Residues, ends and D or L forms follow the SMILES beside them. Hyp = O=C(O)[C@@H]1C[C@@H](O)CN1

Assays:
[1] = Summary of the method: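 Host-guest peptides in Gly-Xaa1-Hyp or Gly-Pro-Xaa2 contexts were melted at 1 mg/ml in PBS, pH 7.0. The heating rate averaged 0.1° C./minute, and residue propensity was derived from the Tm values.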
[2] = Predicted Tm of guest triplets/hexapeptides by additivity of Xaa1 and Xaa2 residues (Equation 1); settings: host-guest collagen-like peptides
Method: A complete table of the stability for all Gly-Xaa1-Xaa2 triplets was constructed using the experimental values for all frequent sequences and the predicted values for all others (Table 1; experimental values are in bold). Predicted values were calculated on the basis of additivity of residues in the Xaa1 and Xaa2 position (Persikov, et al. (2002) supra; Equation 1). Tm^GX^1^X^2=Tm^GX^1^O+Tm^GPX^2−Tm^GPO (1)
The predicted values gave good agreement (within ±3° C.) for the Gly-Ala-Ala and for 28 other guest triplets of the 41 Gly-Xaa1-Xaa2 triplets studied in host-guest collagen-like peptides. […] Observed Tm values of Gly-Xaa1-Arg sequences (Gly-Glu-Arg, Gly-Ala-Arg, Gly-Lys-Arg, Gly-Gln-Arg, and Gly-Asp-Arg) were 2.5° C. smaller on average than predicted, indicating the need for a correction factor in a Gly-Xaa1-Arg context versus a Gly-Pro-Arg context.
Interactions between adjacent Gly-Xaa1-Xaa2 tripeptides were included in the calculations. One study reported stabilities of a selection of host-guest peptides including residues in two adjacent tripeptide units, Gly-Xaa1-Xaa2-Gly-Xaa1′-Xaa2′, covering possible direct interchain or intrachain interactions between residues that are separated by ≦3 residues in sequence (Persikov, et al. (2005) supra) (FIG. 1).

[3] = Method for predicting global Tm of collagen peptides from amino acid sequence; settings: observed minus predicted, peptides of Table 3

Row | experimentally observed Tm of Gly-Xaa1-Xaa2 tripeptide unit in a triple helix ([1]; host-guest peptide, (Gly-Pro-Hyp)8 host, c=1 mg/ml in phosphate-buffered saline, pH 7.0, heating rate 0.1° C./minute) | deviation of observed Tm from predicted Tm of guest triplet [2] | Tm^obs ([1]; peptide of Table 3, defined standard conditions) | ΔTm [3] | Molecule
1 | 32.9 °C | ≤ 3 °C |  |  | Gly-Ala-Ala
2 |  |  | 18.0 °C | 0.9 °C | CC[C@H](C)[C@H](NC(=O)CNC(=O)[C@@H]1C[C@@H](O)CN1C(=O)[C@@H]1CCCN1C(=O)CNC(=O)[C@@H]1C[C@@H](O)CN1C(=O)[C@@H]1CCCN1C(=O)CNC(=O)[C@@H]1C[C@@H](O)CN1C(=O)[C@@H]1CCCN1)C(=O)N[C@H](C(=O)NCC(=O)N[C@@H](C)C(=O)N[C@@H](CCCNC(=N)N)C(=O)NCC(=O)N[C@@H](CC(C)C)C(=O)N[C@@H](C)C(=O)NCC(=O)N1CCC[C@H]1C(=O)N1C[C@H](O)C[C@H]1C(=O)NCC(=O)N1CCC[C@H]1C(=O)N1C[C@H](O)C[C@H]1C(=O)NCC(=O)N1CCC[C@H]1C(=O)N1C[C@H](O)C[C@H]1C(=O)NCC(=O)N1CCC[C@H]1C(=O)N1C[C@H](O)C[C@H]1C(=O)NCC(=O)O)[C@@H](C)O [T3-785, PO-(GPO)2-GIT-GAR-GLA-(GPO)4-G] (H-P[Hyp]GP[Hyp]GP[Hyp]GITGARGLAGP[Hyp]GP[Hyp]GP[Hyp]GP[Hyp]G-OH)
